Laboratory results from patent US9242977B2, “Trk-inhibiting compound” (ONO PHARMACEUTICAL CO., LTD., priority 2012, dated 2016).

Tests used:
[1] = molecular target: T1, TrkA (Homo sapiens (Human), UniProt P04629); experiment: Measurement of TrkA enzyme-inhibiting activity (LanthaScreen TR-FRET kinase assay); assay type: biochemical; conditions: final ATP 150 μM, read-out: TrkA inhibitory activity (IC50; μM)
Experimental: TrkA-inhibiting activity was measured according to the following method using LanthaScreen™ kinase assay reagents (Invitrogen; Fluorescein-Poly GT, LanthaScreen™ Tb-PY20 and TR-FRET Dilution Buffer), TrkA (Invitrogen), ATP (Sigma-Aldrich), a kinase reaction buffer (50 mM HEPES buffer (Sigma-Aldrich) (pH 7.5) containing 0.01% Brij35 (Sigma-Aldrich), 10 mM MgCl2 (Sigma-Aldrich) and 1 mM EGTA (Sigma-Aldrich)) and 0.5 M EDTA (pH 8.0) (Invitrogen).
The present compound was dissolved in dimethylsulfoxide (hereinafter abbreviated as DMSO) to prepare a 10 mM solution. The test compound at 10 mM was distributed into a 96-well plate and serially diluted with DMSO with the geometrical ratio of 3. The serial dilutions (DMSO solutions) were diluted with the kinase reaction buffer to 20-fold to prepare solutions of the present compound with 5-times concentrations (DMSO concentration: 5%). TrkA was diluted with the kinase reaction buffer to prepare a solution at 38.5 ng/mL (enzyme solution). Adenosine triphosphate (hereinafter abbreviated as ATP) was preliminarily diluted in distilled water to prepare a 10 mM solution which was then divided into containers and stored at −20° C. The 10 mM ATP solution and Fluorescein-Poly GT were diluted in the kinase reaction buffer to prepare a solution containing […] of ATP and 500 nM of Fluorescein-Poly GT (ATP-substrate solution). EDTA (0.5 M; pH 8.0) and LanthaScreen™ Tb-PY20 were diluted in the TR-FRET Dilution Buffer to prepare a solution containing 20 mM of EDTA and 4 nM of LanthaScreen™ Tb-PY20 (detection buffer).
The solutions of the present compound (5 μL/well) and the enzyme solution (10 μL/well) were added to a 96-half well assay plate and the plate was shaken at room temperature for 10 minutes on a plate shaker (IKA™ MTS2/4 digital microplate, IKA Japan K.K.). As a control and a blank, the kinase reaction buffer containing 5% DMSO (5 μL/well) was added in place of the solution of the present compound. As a blank, the kinase reaction buffer (10 μL/well) was added in the place of the enzyme solution. The ATP-substrate solution (10 μL/well) was then added to the plate to initiate kinase reaction and the plate was shaken in the dark at room temperature for 1 hour on the plate shaker (final concentration of TrkA: 15.4 ng/mL, final concentration of the substrate: 200 nM and final concentration of ATP: 150 μM). Kinase reaction was terminated by adding the detection buffer (25 μL/well) to the plate and the plate was shaken in the dark at room temperature for 30 minutes on the plate shaker. On an Analyst GT (Molecular Devices Japan, K.K.) the wells were irradiated with excitation light at 340 nm and the fluorescence intensities at 520 nm and 495 nm were measured. The fluorescence intensity at 520 nm for each well was divided by the fluorescence intensity at 495 nm to calculate the time resolved fluorescence resonance energy transfer (TR-FRET) ratio.
The inhibition rate (%) of the present compound was calculated according to the following Equation 1: Inhibition rate (%)={1−(AX−AB)/(AC−AB)×100 Equation 1
wherein AX: the TR-FRET ratio when the present compound is added;
AB: the TR-FRET of the blank; and
AC: the TR-FRET of the control.
The value for 50% inhibition by the present compound (IC50 value) was calculated from the inhibition curve based on the inhibition rate of the present compound at respective concentrations.

[2] = molecular target: T1, TrkA; experiment: TrkA kinase-inhibiting activity using human TrkA expressing cells (CellSenser TrkA-NFAT-bla CHO-K1, NGF-stimulated reporter assay); assay type: cell-based; conditions: CHO-K1 cells expressing human TrkA and NFAT-bla; NGF 50 ng/ml; read-out: TrkA inhibitory activity (IC50; μM)
Experimental: TrkA kinase-inhibiting activity in cell systems was measured using CHO-K1 cells expressing human TrkA and NFAT-bla (CellSenser™ TrkA-NFAT-bla CHO-K1 cells, Invitrogen).
On the day before the assay, CellSenser™ TrkA-NFAT-bla CHO-K1 cells were suspended in an assay medium (Opti-MEM1 Reduced Serum Medium (Invitrogen) containing 0.5% dialysed fetal bovine serum (Invitrogen), 0.1 mM nonessential amino acids (Invitrogen), 1 mM sodium pyruvate (Invitrogen) and antibiotics (100 U/mL penicillin and 100 μg/mL streptomycin (Invitrogen)) and plated at a density of 2.4×10^4 cells/40 μL/well in a 96-well clear bottom plate (Corning, Catalogue No.: 3882). In some wells were added only the assay medium at 40 μL/well (Cell-free). On the day of the assay, 10 mM of the present compound (DMSO solution) was distributed in a 96-well plate (Costar, Catalogue No.: 3363) and serially diluted with DMSO with the geometrical ratio of 3. The serial dilutions were diluted with the assay medium to 100-fold to prepare a solution of the present compound with a 10-times concentration (DMSO concentration: 1%). To the plate where cells were plated was added the present compound at 5 μL/well and the plate was incubated in a CO2 incubator with 5% CO2, 95% Air at 37° C. for 30 minutes. For a control and a blank, the assay medium containing 1% DMSO was added at 5 μL/well in place of the solution of the present compound. Subsequently the assay medium containing NGF (Mouse 2.5s, Natural, Invitrogen) was added to the plate at 5 µL/well (final concentration of NGF: 50 ng/ml) and the plate was incubated in a CO2 incubator with 5% CO2, 95% Air at 37° C. for 5 hours. For a group of blanks, the assay medium was added in place of NGF at 5 μL/well. A reporter assay detection reagent (10 μL/well) was added to the plate and the plate was then incubated in the dark at room temperature for 120 minutes. The reporter assay detection reagent was prepared from LiveBLAzer™-FRET B/G Loading Kit (Invitrogen). On an Analyst GT (Molecular Devices Japan, K.K.) the wells were irradiated with excitation light at 405 nm and the fluorescence intensities at 460 nm and 530 nm were measured. The time resolved fluorescence resonance energy transfer (TR-FRET) ratio of each well was calculated according to the following Equation 2. TR-FRET Ratio=(A460X−A460F)/(A530X−A530F) Equation 2
wherein A460X: the fluorescence intensity at 460 nm of the present compound, control or blank;
A460F: the fluorescence intensity at 460 nm of the Cell-free;
A530X: the fluorescence intensity at 530 nm of the present compound, control or blank; and
A530F: the fluorescence intensity at 530 nm of the Cell-free. […]
The IC50 value of the present compound was calculated from the inhibition curve based on the inhibition rate of the present compound at respective concentrations.

T1 sequence (P04629 33-796): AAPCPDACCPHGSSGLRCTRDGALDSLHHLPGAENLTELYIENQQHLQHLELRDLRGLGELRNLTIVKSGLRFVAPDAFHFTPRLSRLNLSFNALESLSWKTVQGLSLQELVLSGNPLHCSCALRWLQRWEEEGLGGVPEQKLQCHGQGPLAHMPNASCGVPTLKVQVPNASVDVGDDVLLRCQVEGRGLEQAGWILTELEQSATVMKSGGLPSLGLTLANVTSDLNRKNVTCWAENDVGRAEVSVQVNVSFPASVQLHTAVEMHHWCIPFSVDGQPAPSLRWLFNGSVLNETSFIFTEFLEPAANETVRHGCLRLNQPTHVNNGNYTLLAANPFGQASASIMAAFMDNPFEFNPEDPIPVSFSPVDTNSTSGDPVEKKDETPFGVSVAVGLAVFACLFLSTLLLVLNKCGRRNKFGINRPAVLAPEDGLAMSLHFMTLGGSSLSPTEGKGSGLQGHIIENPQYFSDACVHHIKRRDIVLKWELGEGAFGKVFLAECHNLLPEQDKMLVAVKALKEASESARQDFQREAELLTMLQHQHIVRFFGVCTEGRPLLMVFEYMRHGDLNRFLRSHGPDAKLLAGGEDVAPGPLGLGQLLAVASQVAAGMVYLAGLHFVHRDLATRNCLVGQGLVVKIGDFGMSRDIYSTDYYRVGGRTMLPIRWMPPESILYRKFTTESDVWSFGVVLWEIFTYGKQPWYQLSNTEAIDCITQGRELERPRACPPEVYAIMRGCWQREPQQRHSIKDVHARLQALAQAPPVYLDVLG

Row | SMILES | IC50 [1] | IC50 [2]
1 | O=C(Nc1cnc(Oc2ccc(-c3cnc(N4CCCCC4=O)s3)cc2)nc1)Nc1cc(C(F)(F)F)cnc1-c1ccc(C(F)(F)F)nc1 [Example 9, 1-[5,6′-bis(trifluoromethyl)-2,3′-bipyridin-3-yl]-3-(2-{4-[2-(2-oxo-1-piperidinyl)-1,3-thiazol-5-yl]phenoxy}-5-pyrimidinyl)urea] | 0.16 µM | 0.093 µM
2 | O=C(Nc1cnc(Oc2ccc(-c3cnc(N4CCCC4=O)s3)cc2)nc1)Nc1cc(C(F)(F)F)cnc1-c1ccc(C(F)(F)F)nc1 [Example 50, 1-[5,6′-bis(trifluoromethyl)-2,3′-bipyridin-3-yl]-3-(2-{4-[2-(2-oxo-1-pyrrolidinyl)-1,3-thiazol-5-yl]phenoxy}-5-pyrimidinyl)urea] | 0.04 µM | 0.012 µM
3 | Cc1ccc(-c2ncc(C(F)(F)F)cc2NC(=O)Nc2cnc(Oc3ccc(-c4cnc(N5CCCCCC5=O)s4)cc3)nc2)cc1C [Example 59, 1-[2-(3,4-dimethylphenyl)-5-(trifluoromethyl)-3-pyridinyl]-3-(2-{4-[2-(2-oxo-1-azepanyl)-1,3-thiazol-5-yl]phenoxy}-5-pyrimidinyl)urea] | 0.19 µM | 0.07 µM
4 | Cc1ccc(-n2nc(C(C)(C)C)cc2NC(=O)Nc2cnc(Oc3ccc(-c4cnc(N5CCCC5=O)s4)cc3)nc2)cc1C [Example 65-1, 1-[1-(3,4-dimethylphenyl)-3-(2-methyl-2-propanyl)-1H-pyrazol-5-yl]-3-(2-{4-[2-(2-oxo-1-pyrrolidinyl)-1,3-thiazol-5-yl]phenoxy}-5-pyrimidinyl)urea] | 0.08 µM | 0.002 µM
5 | CC(C)(C)c1cc(NC(=O)Nc2cnc(Oc3ccc(-c4cnc(N5CCCC5=O)s4)cc3)nc2)n(-c2ccc3c(c2)CCO3)n1 [Example 66-19, 1-[1-(2,3-dihydro-1-benzofuran-5-yl)-3-(2-methyl-2-propanyl)-1H-pyrazol-5-yl]-3-(2-{4-[2-(2-oxo-1-pyrrolidinyl)-1,3-thiazol-5-yl]phenoxy}-5-pyrimidinyl)urea] | 0.02 µM | 0.004 µM
6 | COC(=O)c1cccc(-n2nc(C(C)(C)C)cc2NC(=O)Nc2cnc(Oc3ccc(-c4cnc(N5CCCC5=O)s4)cc3)nc2)c1 [Example 66-27, Methyl 3-[3-(2-methyl-2-propanyl)-5-{[(2-{4-[2-(2-oxo-1-pyrrolidinyl)-1,3-thiazol-5-yl]phenoxy}-5-pyrimidinyl)carbamoyl]amino}-1H-pyrazol-1-yl]benzoate] | 0.13 µM | 0.01 µM
7 | CC(=O)Nc1ccc(-n2nc(C(C)(C)C)cc2NC(=O)Nc2cnc(Oc3ccc(-c4cnc(N5CCCC5=O)s4)cc3)nc2)cc1 [Example 66-28, N-{4-[3-(2-methyl-2-propanyl)-5-{[(2-{4-[2-(2-oxo-1-pyrrolidinyl)-1,3-thiazol-5-yl]phenoxy}-5-pyrimidinyl)carbamoyl]amino}-1H-pyrazol-1-yl]phenyl}acetamide] | 0.08 µM | 0.014 µM
8 | CC(C)(C)c1cc(NC(=O)Nc2cnc(Oc3ccc(-c4cnc(N5CCCC5=O)s4)cc3)nc2)n(-c2ccc(S(N)(=O)=O)cc2)n1 [Example 66-72, 4-[3-(2-methyl-2-propanyl)-5-{[(2-{4-[2-(2-oxo-1-pyrrolidinyl)-1,3-thiazol-5-yl]phenoxy}-5-pyrimidinyl)carbamoyl]amino}-1H-pyrazol-1-yl]benzenesulfonamide] | 0.05 µM | 0.032 µM
9 | Cn1ncc2cc(-n3nc(C(C)(C)C)cc3NC(=O)Nc3cnc(Oc4ccc(-c5cnc(N6CCCC6=O)s5)cc4)nc3)ccc21 [Example 71, 1-[1-(1-methyl-1H-indazol-5-yl)-3-(2-methyl-2-propanyl)-1H-pyrazol-5-yl]-3-(2-{4-[2-(2-oxo-1-pyrrolidinyl)-1,3-thiazol-5-yl]phenoxy}-5-pyrimidinyl)urea] | 0.03 µM | 0.002 µM
10 | Cc1ccccc1-n1nc(C(F)(F)F)cc1NC(=O)Nc1cnc(Oc2ccc(-c3cnc(N4CCCC4=O)s3)cc2)nc1 [Example 72-1, 1-[1-(2-methylphenyl)-3-(trifluoromethyl)-1H-pyrazol-5-yl]-3-(2-{4-[2-(2-oxo-1-pyrrolidinyl)-1,3-thiazol-5-yl]phenoxy}-5-pyrimidinyl)urea] | 0.05 µM | 0.011 µM
11 | Cc1ccccc1-n1nc(C(C)(F)F)cc1NC(=O)Nc1cnc(Oc2ccc(-c3cnc(N4CCCC4=O)s3)cc2)nc1 [Example 72-3, 1-[3-(1,1-difluoroethyl)-1-(2-methylphenyl)-1H-pyrazol-5-yl]-3-(2-{4-[2-(2-oxo-1-pyrrolidinyl)-1,3-thiazol-5-yl]phenoxy}-5-pyrimidinyl)urea] | 0.06 µM | 0.018 µM
12 | O=C(Nc1cnc(Oc2ccc(-c3cnc(N4CCCC4=O)s3)cc2)nc1)Nc1cc(C2CC2)nn1-c1ccccc1 [Example 72-7, 1-(3-cyclopropyl-1-phenyl-1H-pyrazol-5-yl)-3-(2-{4-[2-(2-oxo-1-pyrrolidinyl)-1,3-thiazol-5-yl]phenoxy}-5-pyrimidinyl)urea] | 0.03 µM | 0.033 µM
13 | CC(C)(C)c1cc(NC(=O)Nc2cnc(Oc3ccc(-c4cnc(N5CCCC5=O)s4)cc3)nc2)n(C2CCOCC2)n1 [Example 80-2, 1-[3-(2-methyl-2-propanyl)-1-(tetrahydro-2 H-pyran-4-yl)-1H-pyrazol-5-yl]-3-(2-{4-[2-(2-oxo-1-pyrrolidinyl)-1,3-thiazol-5-yl]phenoxy}-5-pyrimidinyl)urea] | 0.07 µM | –
14 | CC(C)c1ncc(C(F)(F)F)cc1NC(=O)Nc1cnc(Oc2ccc(-c3cnc(N4CCCC4=O)s3)cc2)nc1 [Example 84-41, 1-[2-isopropyl-5-(trifluoromethyl)-3-pyridinyl]-3-(2-{4-[2-(2-oxo-1-pyrrolidinyl)-1,3-thiazol-5-yl]phenoxy}-5-pyrimidinyl)urea] | 0.09 µM | –
